Earlier results in patent US20240327780A1 (priority 2023, published 2024).
Structures can show the parent of a compound that is named as a salt.

Test system: SARS-CoV-2 nsp14

Compound | inhibition of nsp14 in fluorescence-based screen
Fc1ccc(C(c2ccc(F)cc2)N2CCN(C/C=C/c3ccccc3)CC2)cc1 [flunarizine dihydrochloride] | selective inhibitors
Clc1ccc2nsnc2c1NC1=NCCN1 [tizanidine hydrochloride] | selective inhibitors
